We go through five compounds from patent EP0908457B1, “3-(1,2-benzisothiazol- and isoxazol-5-Y1)-2,4(1H,3H)-pyrimidinedione or thione and 3-(1,2-benzisothiazol- and isoxazol-5-y1)-4(3H)-pyrimidinone or thione herbicidal agents” (BASF AKTIENGESELLSCHAFT, priority 1997, dated 1999).

Data set [1] deals with Oryza sativa, (L.) Tebonnet. Description: Rice tolerance to post-transplant applications under flooded paddy conditions (Example 187), ORYSAT (Rice, Tebonnet). Particulars: rated three to four weeks after treatment.
Data set [2] relates to Cyperus serotinus, Rottb. Description: Preemergence weed control under flooded paddy conditions, CYPSE (Flatsedge). Further: meaning of each grade not given here. The format is in vivo. Particulars: rated three to four weeks after treatment.
Data set [3] concerns Monochoria vaginalis, Presl. Description: Preemergence weed control under flooded paddy conditions, MOOVA (Monochoria). Further: meaning of each grade not given here. The data set is classed as in vivo. Particulars: flooded paddy, rated three to four weeks after treatment.
In data set [4] the test system is Sagittaria pygmaea, L. Description: Preemergence weed control under flooded paddy conditions, SAGPY (Arrowhead (Pygmaea)). Further: meaning of each grade not given here. The format is in vivo. Particulars: flooded paddy, rated three to four weeks after treatment.
Data set [5] relates to Cyperus iria. Description: Preemergence weed control under flooded paddy conditions, CYPIR (Rice Flatsedge). Further: meaning of each grade not given here. The conditions noted are these: flooded paddy, rated three to four weeks after treatment. The format is in vivo.
The subject of data set [6] is Echinochloa oryzoides (Ard.) Fritsch. Description: Preemergence weed control under flooded paddy conditions, ECHORC (Watergrass (Calif.)). Further: meaning of each grade not given here. The format is in vivo. Particulars: flooded paddy, rated three to four weeks after treatment.
Where [7] appears, read: 0.0313 kg/ha, preemergence weeds.
Where [8] appears, read: 0.0625 kg/ha, preemergence weeds.
Setting [9] is: 0.1250 kg/ha, preemergence weeds.
Where [10] appears, read: 0.2500 kg/ha, preemergence weeds.

Consider `Cc1ccc(OCC(=O)OCC#Cc2ccccc2)c(-c2nsc3ccc(-n4c(=O)cc(C(F)(F)F)n(C)c4=O)cc23)c1` [Example 73, 3-Phenyl-2-propynyl {{2-{5-[3,6-dihydro-3-methyl-2,6-dioxo-4-(trifluoromethyl)-1(2H)-pyrimidinyl]-1,2-benzisothiazol-3-yl}-p-tolyl}oxy}acetate], for which the “herbicidal effect rating, ORYSAT (rice tolerance)” value (“herbicidal effect rating, ORYSAT” below) in data set [1] (0.0313 kg/ha) came to 2.5; in data set [1] (0.0625 kg/ha), 3.0; in data set [1] (0.1250 kg/ha), 4.0; in data set [1] (0.2500 kg/ha), 6.0. Besides, the “herbicidal effect rating, CYPSE” value in data set [2] (0.0313 kg/ha, preemergence) is on record as 0.0; in data set [2] (0.0625 kg/ha, preemergence), 0.0; in data set [2] (0.1250 kg/ha, preemergence), 2.0; in data set [2] (0.2500 kg/ha, preemergence) it was 9.0. For the same compound, the “herbicidal effect rating, MOOVA” value came to 9.0 in data set [3] (0.0313 kg/ha, preemergence); 9.0 in data set [3] (0.0625 kg/ha, preemergence); 9.0 in data set [3] (0.1250 kg/ha, preemergence); 9.0 in data set [3] (0.2500 kg/ha, preemergence). Moreover, the “herbicidal effect rating, SAGPY” value in data set [4] (0.0313 kg/ha, preemergence) is 0.0; in data set [4] (0.0625 kg/ha, preemergence) it was 0.0; in data set [4] (0.1250 kg/ha, preemergence), 0.0; in data set [4] (0.2500 kg/ha, preemergence) it was 2.0. The “herbicidal effect rating, CYPIR” value in data set [5] (0.0313 kg/ha, preemergence) was determined as 2.0; in data set [5] (0.0625 kg/ha, preemergence), 6.0; in data set [5] (0.1250 kg/ha, preemergence), 8.0; in data set [5] (0.2500 kg/ha, preemergence) it was 8.0. In addition, the “herbicidal effect rating, ECHORC” value in data set [6] (0.0313 kg/ha, preemergence) is recorded as 8.0; in data set [6] (0.0625 kg/ha, preemergence), 6.5; in data set [6] (0.1250 kg/ha, preemergence), 9.0; in data set [6] (0.2500 kg/ha, preemergence) it was 9.0.
As for `Cn1c(C(F)(F)F)cc(=O)n(-c2ccc3snc(C(Cl)Cl)c3c2)c1=O` [Example 114, 3-[3-(Dichloromethyl)-1,2-benzisothiazol-5-yl]-1-methyl-6-(trifluoromethyl)-2,4(1H,3H)-pyrimidinedione], the “herbicidal effect rating, ORYSAT” value was 4.0 in data set [1] (0.0313 kg/ha), 6.0 in data set [1] (0.0625 kg/ha), 7.0 in data set [1] (0.1250 kg/ha) and 7.0 in data set [1] (0.2500 kg/ha). Moreover, the “herbicidal effect rating, CYPSE” value in data set [2] (setting [7]) is given as 0.0; in data set [2] (setting [8]) it was 0.0; in data set [2] (setting [9]) it was 2.0; in data set [2] (setting [10]) it was 6.0. The “herbicidal effect rating, MOOVA” value in data set [3] (setting [7]) worked out at 9.0; in data set [3] (setting [8]), 9.0; in data set [3] (setting [9]), 9.0; in data set [3] (setting [10]) it was 8.0. Besides, the “herbicidal effect rating, SAGPY” value in data set [4] (setting [7]) is on record as 0.0; in data set [4] (setting [8]), 2.0; in data set [4] (setting [9]), 6.0; in data set [4] (setting [10]), 6.0. For the same compound, the “herbicidal effect rating, CYPIR” value in data set [5] (setting [7]), in data set [5] (setting [8]), in data set [5] (setting [9]) and in data set [5] (setting [10]) was 9.0 in each case. Besides, the “herbicidal effect rating, ECHORC” value in data set [6] (setting [7]) amounted to 0.0; in data set [6] (setting [8]) it was 0.0; in data set [6] (setting [9]) it was 4.0; in data set [6] (setting [10]), 6.0.
Regarding `Cn1c(C(F)(F)F)cc(=O)n(-c2ccc3snc(N4CCOCC4)c3c2)c1=O` [Example 116, 1-Methyl-3-(3-morpholino-1,2-benzisothiazol-5-yl)-6-(trifluoromethyl)-2,4(1H,3H)-pyrimidinedione], the “herbicidal effect rating, ORYSAT” value in data set [1] (0.0313 kg/ha), in data set [1] (0.0625 kg/ha), in data set [1] (0.1250 kg/ha) and in data set [1] (0.2500 kg/ha) was 0.0 throughout. Moreover, the “herbicidal effect rating, CYPSE” value in data set [2] (setting [7]), in data set [2] (setting [8]), in data set [2] (setting [9]) and in data set [2] (setting [10]) was 0.0 each time. Moreover, the “herbicidal effect rating, MOOVA” value amounted to 0.0 in data set [3] (setting [7]), 2.0 in data set [3] (setting [8]), 8.0 in data set [3] (setting [9]) and 8.0 in data set [3] (setting [10]). Moreover, the “herbicidal effect rating, SAGPY” value in data set [4] (setting [7]), in data set [4] (setting [8]), in data set [4] (setting [9]) and in data set [4] (setting [10]) was 0.0 in each case. Further, the “herbicidal effect rating, CYPIR” value in data set [5] (setting [7]), in data set [5] (setting [8]), in data set [5] (setting [9]) and in data set [5] (setting [10]) was 0.0 each time. Further, the “herbicidal effect rating, ECHORC” value in data set [6] (setting [7]), in data set [6] (setting [8]), in data set [6] (setting [9]) and in data set [6] (setting [10]) was 0.0 in each case.
Turning to `Cn1c(C(F)(F)F)cc(=O)n(-c2ccc3snc(NS(C)(=O)=O)c3c2)c1=O` [Example 117, N-{5-[3,6-Dihydro-3-methyl-2,6-dioxo-4-(trifluoromethyl)-1(2H)-pyrimidinyl]-1,2-benzisothiazol-3-yl}methanesulfonamide], the “herbicidal effect rating, ORYSAT” value in data set [1] (0.0313 kg/ha), in data set [1] (0.0625 kg/ha), in data set [1] (0.1250 kg/ha) and in data set [1] (0.2500 kg/ha) was 0.0 each time. Besides, the “herbicidal effect rating, CYPSE” value in data set [2] (setting [7]), in data set [2] (setting [8]), in data set [2] (setting [9]) and in data set [2] (setting [10]) was 0.0 in each case. Besides, the “herbicidal effect rating, MOOVA” value was 0.0 in data set [3] (setting [7]), 0.0 in data set [3] (setting [8]), 2.0 in data set [3] (setting [9]) and 4.0 in data set [3] (setting [10]). In addition, the “herbicidal effect rating, SAGPY” value in data set [4] (setting [7]), in data set [4] (setting [8]), in data set [4] (setting [9]) and in data set [4] (setting [10]) was 0.0 each time. The “herbicidal effect rating, CYPIR” value in data set [5] (setting [7]), in data set [5] (setting [8]), in data set [5] (setting [9]) and in data set [5] (setting [10]) was 0.0 each time. The “herbicidal effect rating, ECHORC” value in data set [6] (setting [7]), in data set [6] (setting [8]), in data set [6] (setting [9]) and in data set [6] (setting [10]) was 0.0 in each case.
For `CCN(CC)c1nsc2ccc(-n3c(=O)cc(C(F)(F)F)n(C)c3=O)cc12` [Example 118, 3-[3-(Diethylamino)-1,2-benzisothiazol-5-yl]-1-methyl-6-(trifluoromethyl)-2,4(1H,3H)-pyrimidinedione], the “herbicidal effect rating, ORYSAT” value in data set [1] (0.0313 kg/ha), in data set [1] (0.0625 kg/ha), in data set [1] (0.1250 kg/ha) and in data set [1] (0.2500 kg/ha) was 0.0 in each case. Moreover, the “herbicidal effect rating, CYPSE” value in data set [2] (setting [7]), in data set [2] (setting [8]), in data set [2] (setting [9]) and in data set [2] (setting [10]) was 0.0 in each case. Besides, the “herbicidal effect rating, MOOVA” value in data set [3] (setting [7]), in data set [3] (setting [8]), in data set [3] (setting [9]) and in data set [3] (setting [10]) was 0.0 throughout. Besides, the “herbicidal effect rating, SAGPY” value in data set [4] (setting [7]), in data set [4] (setting [8]), in data set [4] (setting [9]) and in data set [4] (setting [10]) was 0.0 in each case. The “herbicidal effect rating, CYPIR” value in data set [5] (setting [7]), in data set [5] (setting [8]), in data set [5] (setting [9]) and in data set [5] (setting [10]) was 0.0 in each case. The “herbicidal effect rating, ECHORC” value in data set [6] (setting [7]), in data set [6] (setting [8]), in data set [6] (setting [9]) and in data set [6] (setting [10]) was 0.0 throughout.
